Literature values in patent US8623868B2, “Processes of making and using pharmaceutical formulations of antineoplastic agents” (Merck Sharp & Dohme Corp., priority 2002, dated 2014).

What was measured:
advanced melanoma [1] = conditions: patients having advanced melanoma; Newlands et al., Br J Cancer 1992
advanced melanoma [2] = conditions: patients with advanced melanoma; Journal of Clinical Oncology 13(4) 1995

Cn1nnc2c(C(N)=O)ncn2c1=O [Temozolomide]
clinical responses achieved, % of patients (advanced melanoma [1]): 17%
clinical response achieved, % of patients (advanced melanoma [2]): 21%
water solubility: water-insoluble
